{
  "source": "patent US20240172749A1",
  "about": "“USE OF NITRAPYRIN FOR IMPROVED PLANT GROWTH AND DEVELOPMENT” (Verdesian Life Sciences U.S., LLC, priority 2021, published 2024)",
  "key": {"[1]": {"settings": "compositions and/or formulations containing high amounts of water; cited from earlier work"}, "[2]": {"tested_on": "corn seedlings", "test": "Greenhouse study of nitrapyrin as a biostimulant, shoot dry weight (biomass) of corn seedlings", "format": "in vivo", "settings": "applied at lower concentrations/label rates than typically employed as nitrification inhibitor (equal to or lower than 45.4 grams of nitrapyrin per acre)", "protocol": "Com seeds were sown in 3-liter pots filled with a peat-vermiculite-perlite potting mix. Plants were grown for a period of 14 days in a greenhouse under standard conditions (28/32° C. night/day temperatures, 16-hour photoperiod, 55% relative humidity, 800 uMol/m2/s light intensity). Seven days after planting, treatments were applied using a 3×3 factorial treatment design (3 nitrapyrin rates×3 fertilizer treatments), with 4 biological replications per treatment combination. Plants were arranged in a completely randomized layout on the greenhouse bench. Nitrapyrin rates were: 0.0 g/plant (acetonitrile only), 0.0005 g/plant and 0.00073 g/plant, with each treatment unit dissolved in 5 mL of acetonitrile. Fertilizer treatments were: No fertilizer (water only), 15-5-15, and 6-24-6. Fertilizers were delivered at a rate of 100 ppm nitrogen, 3 times/week beginning on day 7 through day 14. Nitrapyrin treatments were given only once on day 7. Plants were monitored for signs of phytotoxicity during the experiment. On day 14, plants were harvested and dried in a forced-air oven. Dried plants were weighed individually for biomass. For results see FIG. 1.\nA second experiment was performed with the same execution as described above, but with additional treatment groups and additional growing time (21 days). […]"}},
  "data": [
    {"smiles": "Clc1cccc(C(Cl)(Cl)Cl)n1", "note": "[nitrapyrin, Nitrapyrin]", "values": [
      {"measurement": "degradation of nitrapyrin", "setting": "[1]", "value": "rapid degradation"},
      {"measurement": "biostimulant properties (improvement in plant growth and/or vigor)", "setting": "[2]", "value": "can exhibit biostimulant properties"}
    ]}
  ]
}
